Source: patent publication US11180518B2, “Phenyl-heterocycle-phenyl derivatives for use in the treatment or prevention of melanoma” (MAX-PLANCK-GESELLSCHAFT ZUR FÖRDERUNG DER WISSENSCHAFTEN …, priority 2017, dated 2021)

Columns and labels:
[1] = tested on: α-synuclein-expressing WM983-B human metastatic melanoma cells; assay: Test screening of DPP compounds in human metastatic melanoma cells (cell death read-out); format: cell-based; details: WM983B, second 10 μM dose at 48 hr, serum-free culture medium, read at 48 h / 96 h
Description: To determine the impact of the DPP compounds on high-level α-synuclein-expressing human melanoma cells, WM983-B melanoma cells were plated, in duplicate, in 12-well tissue culture plates in cell culture medium containing 10% fetal bovine serum. Twenty-four hours later, the cells were rinsed three-times with serum-free medium, followed by addition of serum-free medium containing each DPP compound at a dose of 10 μM. Following incubation of the DPP compound-treated cells at 37° C. for 48 hr, each DPP compound was added to the cells at a second 10 μM dose. Using light microscopy, changes in the cells' morphology>detachment of the cells from the cell culture dish/floating in the cell culture medium>cell death were recorded on a scale of 0, +, ++, +++, ++++ at the 24 hr, 48 hr, 72 hr and 96 hr time-point following addition of DPP compound.
The DPP compounds were added to α-synuclein-expressing WM983-B human metastatic melanoma cells.

[2] = tested on: high-level α-synuclein expressing cell lines WM983-B; assay: Initial screen of sixteen compounds from the DPP library; format: cell-based, human
SK-MEL-5 melanoma cells [3] = assay: Cell morphology (phase-contrast); format: cell-based, human; details: increasing doses, serum-free medium; time- and dose-dependent
Source text: (§1) To assess the possible impact of anle138b as well as anle138c on the different melanoma cell lines, WM983-A, WM983-B and SK-MEL-5, we treated them with increasing doses of either compound, dissolved in dimethyl sulfoxide (DMSO), and added to serum-free culture medium. […] We also observed that treatment with anle138b caused a more rapid morphological change than anle138c. To determine whether the effect of the two anle compounds was related to the amount of α-synuclein produced by the cells, we compared the proliferation of the (VGP) WM983-A high-level and the (RGP/VGP) WM1158 low-level α-synuclein-producing melanoma cells over a period of 96 hr, with replenishment of each anle compound at 48 hr (FIGS. 8A and B).
(§2) 10 or 30 mM stock solutions of anle138b or anle138c were made in DMSO. Since anle138b as well as anle138c bind strongly to FBS, melanoma cells, plated for 24 hr in tissue-culture medium containing 10% FBS, were rinsed three times with serum-free medium prior to addition of anle138b, anle138c, or an equivalent volume of DMSO only in serum-free medium. Forty-eight hours later, the cell culture medium was removed, followed by addition of an equivalent dose of anle138b or anle138c, or DMSO only in serum-free culture medium. […] Proliferation of melanoma cells that had received DMSO only, or were treated with anle138b was determined by counting the cells with a hemocytometer.
(§3) Cell morphology. Phase-contrast or DIC images of the melanoma cells that had been treated for various times with anle138b or anle138c, or had received DMSO only were captured with a 10×NA 0.6 objective on a Zeiss Axiovert 100 microscope with a Hamamatsu Orca charge-coupled device (CCD) camera. At least four images, at random areas per culture dish, were recorded for each time point.

WM1158 melanoma cells [4] = assay: Cell morphology (phase-contrast); format: cell-based, human; details: 10 μM, up to 96 hr, replenishment at 48 hr
Source text: as §1, §2, §3

WM983-B melanoma cells [5] = assay: Cell morphology (phase-contrast); format: cell-based, human; details: increasing doses, serum-free medium; time- and dose-dependent
Source text: as §1, §2, §3

WM1158 melanoma cells [6] = assay: Melanoma cell proliferation analysis; format: cell-based, human; details: over 96 hr, replenishment at 48 hr
Source text: as §1, §2

SK-MEL-5 melanoma cells [7] = assay: Autophagy: LC3 immunofluorescence; format: cell-based, human; details: compared with WM983-B cells
Description: (§4) We observed a clear effect of the anle compounds on the autophagy pathway of the melanoma cells. […] Following addition of anle138c, the effect was seen later with levels of 8% at 24 hr and 78% after 96 hr.
(§5) Autophagy. WM983-B and SK-MEL-5 cells that for 24 or 48 hr were treated with anle138 or had received DMSO only were fixed for 20 min with 3.7% PFA, permeabilized, blocked, and probed with an anti-LC3B [clone 2G6] antibody (nanoTools Antikörpertechnik GmbH & Co. KG, Teningen, Germany), followed by a donkey anti-mouse Alexa-488 secondary antibody and Draq5 DNA counterstain. Confocal image stacks were obtained with a 63×NA 1.2 objective on a Zeiss LSM 510 Meta confocal microscope.

WM983-B melanoma cells [8] = assay: Autophagy: LC3 immunofluorescence; format: cell-based, human
Description: as §4, §5

[9] = tested on: WM983-A, WM983-B, and SK-MEL-5 melanoma cell lines; assay: Apoptosis markers in treated melanoma cells; format: cell-based, human
Source text: Although the morphological changes in the WM983-A, WM983-B, and SK-MEL-5 melanoma cell lines following addition of anle138b occurred quite rapidly, they were not indicative of the cells undergoing apoptosis. […] Differential interference contrast (DIC) images of the morphology of the anle138b-treated WM983-B, SK-MEL-5, and WM1158 melanoma cells from the same panels are shown in FIG. 9.

Binding to FBS = format: in vitro ADME
α-synuclein monomers = α-synuclein monomers (Homo sapiens, UniProt P37840); details: cited from earlier work

| Compound | cytotoxicity at 10 µM [1] | also measured |
| --- | --- | --- |
| Brc1cccc(-c2cc(-c3ccc4c(c3)OCCCO4)n[nH]2)c1 | 100% | – |
| Brc1cccc(-c2cc(-c3ccc4c(c3)OCCO4)n[nH]2)c1 | 100% | – |
| Brc1cccc(-c2nc(-c3ccc4c(c3)OCCO4)co2)c1 | 100% | – |
| Brc1cccc(-c2cc(-c3ccc4nccnc4c3)n[nH]2)c1 | 100% | – |
| CN1CCOc2cc(-c3cc(-c4cccc(Br)c4)[nH]n3)ccc21 | 100% | – |
| COc1ccc(-c2cc(-c3cccc(F)c3)on2)cc1OC | 100% | – |
| Oc1ccc(-c2cc(-c3cccc(F)c3)on2)cc1O | 100% | – |
| Oc1ccc(-c2noc(-c3cccc(F)c3)n2)cc1O | 100% | – |
| Brc1cccc(-c2c[nH]c(-c3ccc4c(c3)OCO4)n2)c1 | 100% | – |
| FCCn1nc(-c2cccc(Br)c2)cc1-c1ccc2c(c1)OCO2 | 100% | – |
| Nc1cccc(-c2ncc(-c3ccc(Cl)c(Cl)c3)o2)c1 | 100% | – |
| COc1cccc(-c2c[nH]c(-c3cccc(Br)c3)n2)c1 | 100% | – |
| Clc1cccc(-c2cc(-c3ccc4c(c3)OCCO4)n[nH]2)c1 | 100% | – |
| CC1(C)CCc2cc(-c3cc(-c4cccc(Br)c4)[nH]n3)ccc2O1 | 100% | – |
| Clc1cccc(-c2cc(-c3ccc4c(c3)OCO4)n[nH]2)c1 | 100% | – |
| CN(C)c1ccc(-c2cc(-c3cccc(F)c3)on2)cc1 | 50 to 90% | – |
| Oc1ccc(-c2cc(-c3cccc(F)c3)[nH]n2)cc1O | 50 to 90% | – |

| Compound | cytotoxicity at 10 µM [1] | also measured |
| --- | --- | --- |
| Oc1cccc(-c2cc(-c3cccc(Cl)c3)[nH]n2)c1 | 50 to 90% | – |
| Cn1nc(-c2ccc3c(c2)OCO3)cc1-c1cccc(Br)c1 | 50 to 90% | – |
| Cc1ccc(Br)cc1-c1nc(-c2cccc(OC(F)(F)F)c2)no1 | 50 to 90% | – |
| Brc1cccc(-c2cc(-c3ccc4ccoc4c3)n[nH]2)c1 | 50 to 90% | – |
| FC1(F)Oc2ccc(-c3cc(-c4cccc(Br)c4)[nH]n3)cc2O1 | 20 to 50% | – |
| Brc1cccc(-c2cc(-c3ccc4ccccc4c3)n[nH]2)c1 | 20 to 50% | – |
| Nc1ccc(-c2cc(-c3cccc(Cl)c3)[nH]n2)cc1 | 20 to 50% | – |
| COc1ccc(-c2noc(-c3cccc(Cl)c3)n2)cc1 | 20 to 50% | – |
| Cn1ccc2cc(-c3cc(-c4cccc(Br)c4)[nH]n3)ccc21 | 20 to 50% | – |
| Fc1cccc(-c2cc(-c3ccc4c(c3)OCO4)n[nH]2)c1 | < 20% | – |
| CN(C)c1ccc(-c2cc(-c3cccc(Br)c3)no2)cc1 | < 20% | – |
| Brc1cccc(-c2nc(-c3ccc4c(c3)OCO4)no2)c1 | < 20% | – |
| Clc1cc(Cl)cc(-c2nc(-c3ccc4c(c3)OCO4)no2)c1 | < 20% | – |
| Oc1ccc(-c2cc(-c3cccc(Br)c3)[nH]n2)cc1O [anle138c] | – | effect on WM983-B cells in initial screen [2]: significantly affected; morphological changes (SK-MEL-5 melanoma cells [3]): major morphological changes; morphology (WM1158 melanoma cells [4]): did not show a significantly altered morphology; morphological changes (WM983-B melanoma cells [5]): major morphological changes; proliferation (WM1158 melanoma cells [6]): reduced proliferation only after 48 hr; levels of punctuate LC3 loci (SK-MEL-5 melanoma cells [7]): even higher levels; cells with punctuate upregulation of LC3 (WM983-B melanoma cells [8]; 24 hr, cells still attached): 8%; cells with punctuate upregulation of LC3 (WM983-B melanoma cells [8]; 96 hr): 78%; cleaved caspase 3 (apoptosis) [9]: nor were they positive for cleaved caspase 3; binding to FBS (Binding to FBS): bind strongly; binding to α-synuclein monomers (α-synuclein monomers): Neither of these two compounds binds to α-synuclein monomers |
| CN(C)c1ccc(-c2cc(-c3cccc(Br)c3)[nH]n2)cc1 [anle253b, 5-(3-Bromophenyl)-3-(4-dimethylaminophenyl)-1H-pyrazole] | – | effect on WM983-B cells in initial screen [2]: significantly affected |
| Oc1ccc(-c2cc(-c3cccc(Br)c3)[nH]n2)cc1O [drawing 77] | 100% | – |
| CN(C)c1ccc(-c2cc(-c3cccc(Br)c3)[nH]n2)cc1 [drawing 79] | 100% | – |
